Tests used:
Type in all cases: in vivo
corn = experiment: Test Example 4: effect on crop by soil treatment (symbol c); settings: for c (corn) effect on crop grade: application herbicide amount 320 g/ha
How it was run: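 Greenhouse culture at 25° C. to 30° C. followed sowing of seed in spots on sterilized diluvial soil with a soil cover close to 1.5 cm thick.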

Veronica persica = experiment: Test Example 5: herbicidal effect by foliage application, plastic box (symbol R); settings: 320 g/ha, 3 weeks after application
How it was run: (§1)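 Visual herbicidal score, taken three weeks post-application, of seedlings sprayed on the foliage with water-diluted emulsion at a predetermined amount; plants were 14 days old, greenhouse-raised at 25° C. to 30° C.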

Alopecurus myosuroides = experiment: Test Example 5: herbicidal effect by foliage application, plastic box (symbol J); settings: 320 g/ha, 3 weeks after application
How it was run: as §1

Setaria viridis = experiment: Test Example 5: herbicidal effect by foliage application, plastic box (symbol G); settings: 320 g/ha, 3 weeks after application
How it was run: as §1

[1] = test system: Echinochloa crus-galli var. crus-galli; experiment: Test Example 4: herbicidal effect by soil treatment (symbol H); settings: for H (Echinochloa crus-galli var. crus-galli) herbicidal effect grade: application herbicide amount 320 g/ha
How it was run: (§2)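 Seeds were sown in sterilized diluvial soil, covered with about 1.5 cm of soil, and the soil surface was sprayed with a water-diluted emulsion of the compound at a predetermined rate. Plants grew in a greenhouse at 25° C. to 30° C.; effects were scored visually 3 weeks after application.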

[2] = test system: directly sowed rice plant; experiment: Test Example 3: effect on crop by foliage application, Wagner pot (symbol b); settings: application herbicide amount 320 g/ha
How it was run: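 Wagner pot (1/10000 are), alluvial soil, submerged 0.1–0.5 cm; sown E. crus-galli var. crus-galli, L. chinensis, C. difformis, rice; greenhouse 25–30 °C.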

Apera spica-venti = experiment: Test Example 5: herbicidal effect by foliage application, plastic box (symbol L); settings: 320 g/ha, 3 weeks after application
How it was run: as §1

Galium spurium = experiment: Test Example 5: herbicidal effect by foliage application, plastic box (symbol Q); settings: 320 g/ha, 3 weeks after application
How it was run: as §1

beet [3] = experiment: Test Example 5: effect on crop by foliage application, plastic box (symbol f); settings: 320 g/ha, 3 weeks after application
How it was run: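 In a plastic box 7 cm deep filled with sterilized diluvial soil, seeds of crops and weeds such as Digitaria ciliaris, Avena fatua and Amaranthus retroflexus are sown in spots and covered with about 1.5 cm of soil before greenhouse growth at 25–30° C.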

Digitaria ciliaris [4] = experiment: Test Example 5: herbicidal effect by foliage application, plastic box (symbol F); settings: 320 g/ha, 3 weeks after application
How it was run: as §1

Cyperus difformis = experiment: Test Example 3: herbicidal effect by foliage application, Wagner pot (symbol E); settings: application herbicide amount 320 g/ha
How it was run: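 Steps: fill pot with alluvial soil; add water to 0.1–0.5 cm depth; sow weed and rice seed; grow 14 days at 25–30 °C; spray diluted emulsion over the leaves; rate effect after 3 weeks.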

Digitaria ciliaris [5] = experiment: Test Example 4: herbicidal effect by soil treatment (symbol F); settings: for F (Digitaria ciliaris) herbicidal effect grade: application herbicide amount 320 g/ha
How it was run: as §2

[6] = test system: Echinochloa oryzacola Vasing.; experiment: Test Example 2: herbicidal activity, application during weed generation in submerged conditions (symbol A); settings: Table 23; application herbicide amount 320 g/ha; grade 0-5 by criteria of Test Example 1
How it was run: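 Submerged alluvial soil (4 cm) sown with mixed seed; greenhouse 25–30° C. 1–2 leaf: diluted emulsion onto water surface, preset dose. Visual score, 3 wk.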

Abutilon theophrasti = experiment: Test Example 4: herbicidal effect by soil treatment (symbol M); settings: for M (Abutilon theophrasti) herbicidal effect grade: application herbicide amount 320 g/ha
How it was run: as §2

wheat = experiment: Test Example 4: effect on crop by soil treatment (symbol e); settings: for e (wheat) effect on crop grade: application herbicide amount 320 g/ha
How it was run: (§3)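 Crop seeds, among them rice, wheat, beet and rapeseed, were sown in sterilized diluvial soil and covered with about 1.5 cm of soil. Boxes were kept in a greenhouse at 25° C. to 30° C. for plant growth.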

Lolium multiflorum Lam. = experiment: Test Example 4: herbicidal effect by soil treatment (symbol K); settings: for K (Lolium multiflorum Lam.) herbicidal effect grade: application herbicide amount 320 g/ha
How it was run: as §2

beet [7] = experiment: Test Example 4: effect on crop by soil treatment (symbol f); settings: for f (beet) effect on crop grade: application herbicide amount 320 g/ha
How it was run: as §3

rice = experiment: Test Example 4: effect on crop by soil treatment (symbol b); settings: for b (directly sowed rice plant) effect on crop grade: application herbicide amount 320 g/ha
How it was run: as §3

SMILES: CON=C(C)CC1CC(OC(=O)COc2ccccc2OC)=C(c2c(C)cc(C)cc2C)C1=O (stereo not drawn) [1-067]
- c (corn) effect on crop grade (corn): 3 (Herbicidal ratio of 40% or higher and lower than 70%)
- R: Veronica persica, herbicidal effect grade (Veronica persica): 3 (Herbicidal ratio of 40% or higher and lower than 70%)
- J: Alopecurus myosuroides, herbicidal effect grade (Alopecurus myosuroides): 5 (Herbicidal ratio of 90% or more (almost completely withered))
- G: Setaria viridis, herbicidal effect grade (Setaria viridis): 5 (Herbicidal ratio of 90% or more (almost completely withered))
- H (Echinochloa crus-galli var. crus-galli) herbicidal effect grade [1]: 5 (Herbicidal ratio of 90% or more (almost completely withered))
- effect on crop b (directly sowed rice plant), grade 0-5 [2]: 5 (Herbicidal ratio of 90% or more (almost completely withered))
- L: Apera spica-venti, herbicidal effect grade (Apera spica-venti): 5 (Herbicidal ratio of 90% or more (almost completely withered))
- Q: Galium spurium, herbicidal effect grade (Galium spurium): 2 (Herbicidal ratio of 20% or higher and lower than 40%)
- f: beet, effect on crop grade (beet [3]): 1 (Herbicidal ratio of 5% or higher and lower than 20%)
- F: Digitaria ciliaris, herbicidal effect grade (Digitaria ciliaris [4]): 5 (Herbicidal ratio of 90% or more (almost completely withered))
- herbicidal effect on E, grade 0-5 (Cyperus difformis): 5 (Herbicidal ratio of 90% or more (almost completely withered))
- F (Digitaria ciliaris) herbicidal effect grade (Digitaria ciliaris [5]): 5 (Herbicidal ratio of 90% or more (almost completely withered))
- Herbicidal effect grade, A: Echinochloa oryzacola Vasing. [6]: 4 (Herbicidal ratio of 70% or higher and lower than 90%)
- M (Abutilon theophrasti) herbicidal effect grade (Abutilon theophrasti): 5 (Herbicidal ratio of 90% or more (almost completely withered))
- e (wheat) effect on crop grade (wheat): 5 (Herbicidal ratio of 90% or more (almost completely withered))
- K (Lolium multiflorum Lam.) herbicidal effect grade (Lolium multiflorum Lam.): 5 (Herbicidal ratio of 90% or more (almost completely withered))
- f (beet) effect on crop grade (beet [7]): 0 (Herbicidal ratio of 5% or lower (almost no effect))
- b (directly sowed rice plant) effect on crop grade (rice): 5 (Herbicidal ratio of 90% or more (almost completely withered))

SMILES: CON=C(CC1CC(O)=C(c2c(C)cc(C)cc2C)C1=O)C1CCCC1 (stereo not drawn) [1-078]
- c: corn, effect grade on crop (corn; 320 g/ha): 4 (Herbicidal ratio of 70% or higher and lower than 90%)
- R: Veronica persica, herbicidal effect (criteria 0-5) (Veronica persica): 0 (Herbicidal ratio of 5% or lower (almost no effect))
- J: Alopecurus myosuroides, herbicidal effect (criteria 0-5) (Alopecurus myosuroides): 4 (Herbicidal ratio of 70% or higher and lower than 90%)
- G: Setaria viridis, herbicidal effect (criteria 0-5) (Setaria viridis): 5 (Herbicidal ratio of 90% or more (almost completely withered))
- H: Echinochloa crus-galli var. crus-galli, herbicidal effect grade ([1]; 320 g/ha): 2 (Herbicidal ratio of 20% or higher and lower than 40%)
- effect on crop b (directly sowed rice plant), grade 0-5 [2]: 5 (Herbicidal ratio of 90% or more (almost completely withered))
- L: Apera spica-venti, herbicidal effect (criteria 0-5) (Apera spica-venti): 3 (Herbicidal ratio of 40% or higher and lower than 70%)
- Q: Galium spurium, herbicidal effect (criteria 0-5) (Galium spurium): 0 (Herbicidal ratio of 5% or lower (almost no effect))
- f: beet, effect on crop (criteria 0-5) (beet [3]): 0 (Herbicidal ratio of 5% or lower (almost no effect))
- F: Digitaria ciliaris, herbicidal effect (criteria 0-5) (Digitaria ciliaris [4]): 1 (Herbicidal ratio of 5% or higher and lower than 20%)
- herbicidal effect on E, grade 0-5 (Cyperus difformis): 0 (Herbicidal ratio of 5% or lower (almost no effect))
- F: Digitaria ciliaris, herbicidal effect grade (Digitaria ciliaris [5]; 320 g/ha): 5 (Herbicidal ratio of 90% or more (almost completely withered))
- Herbicidal effect grade, A: Echinochloa oryzacola Vasing. [6]: 4 (Herbicidal ratio of 70% or higher and lower than 90%)
- M: Abutilon theophrasti, herbicidal effect grade (Abutilon theophrasti; 320 g/ha): 0 (Herbicidal ratio of 5% or lower (almost no effect))
- e: wheat, effect grade on crop (wheat; 320 g/ha): 0 (Herbicidal ratio of 5% or lower (almost no effect))
- K: Lolium multiflorum Lam., herbicidal effect grade (Lolium multiflorum Lam.; 320 g/ha): 5 (Herbicidal ratio of 90% or more (almost completely withered))
- f: beet, effect grade on crop (beet [7]; 320 g/ha): 0 (Herbicidal ratio of 5% or lower (almost no effect))
- b: directly sowed rice plant, effect grade on crop (rice; 320 g/ha): 5 (Herbicidal ratio of 90% or more (almost completely withered))

SMILES: CON=C(CC1CC(O)=C(c2c(C)cc(C)cc2C)C1=O)c1ccccc1 (stereo not drawn) [1-047]
- c (corn) effect on crop grade (corn): 0 (Herbicidal ratio of 5% or lower (almost no effect))
- R: Veronica persica, herbicidal effect grade (Veronica persica): 0 (Herbicidal ratio of 5% or lower (almost no effect))
- J: Alopecurus myosuroides, herbicidal effect grade (Alopecurus myosuroides): 3 (Herbicidal ratio of 40% or higher and lower than 70%)
- G: Setaria viridis, herbicidal effect grade (Setaria viridis): 1 (Herbicidal ratio of 5% or higher and lower than 20%)
- H (Echinochloa crus-galli var. crus-galli) herbicidal effect grade [1]: 3 (Herbicidal ratio of 40% or higher and lower than 70%)
- effect on crop b (directly sowed rice plant), grade 0-5 [2]: 2 (Herbicidal ratio of 20% or higher and lower than 40%)
- L: Apera spica-venti, herbicidal effect grade (Apera spica-venti): 1 (Herbicidal ratio of 5% or higher and lower than 20%)
- Q: Galium spurium, herbicidal effect grade (Galium spurium): 0 (Herbicidal ratio of 5% or lower (almost no effect))
- f: beet, effect on crop grade (beet [3]): 0 (Herbicidal ratio of 5% or lower (almost no effect))
- F: Digitaria ciliaris, herbicidal effect grade (Digitaria ciliaris [4]): 1 (Herbicidal ratio of 5% or higher and lower than 20%)
- herbicidal effect on E, grade 0-5 (Cyperus difformis): 0 (Herbicidal ratio of 5% or lower (almost no effect))
- F (Digitaria ciliaris) herbicidal effect grade (Digitaria ciliaris [5]): 3 (Herbicidal ratio of 40% or higher and lower than 70%)
- Herbicidal effect grade, A: Echinochloa oryzacola Vasing. [6]: 2 (Herbicidal ratio of 20% or higher and lower than 40%)
- M (Abutilon theophrasti) herbicidal effect grade (Abutilon theophrasti): 0 (Herbicidal ratio of 5% or lower (almost no effect))
- e (wheat) effect on crop grade (wheat): 0 (Herbicidal ratio of 5% or lower (almost no effect))
- K (Lolium multiflorum Lam.) herbicidal effect grade (Lolium multiflorum Lam.): 3 (Herbicidal ratio of 40% or higher and lower than 70%)
- f (beet) effect on crop grade (beet [7]): 0 (Herbicidal ratio of 5% or lower (almost no effect))
- b (directly sowed rice plant) effect on crop grade (rice): 4 (Herbicidal ratio of 70% or higher and lower than 90%)

SMILES: CCC(CC1CC(O)=C(c2c(C)cc(C)cc2C)C1=O)=NOC (stereo not drawn) [1-038]
- c (corn) effect on crop grade (corn): 3 (Herbicidal ratio of 40% or higher and lower than 70%)
- R: Veronica persica, herbicidal effect grade (Veronica persica): 1 (Herbicidal ratio of 5% or higher and lower than 20%)
- J: Alopecurus myosuroides, herbicidal effect grade (Alopecurus myosuroides): 5 (Herbicidal ratio of 90% or more (almost completely withered))
- G: Setaria viridis, herbicidal effect grade (Setaria viridis): 5 (Herbicidal ratio of 90% or more (almost completely withered))
- H (Echinochloa crus-galli var. crus-galli) herbicidal effect grade [1]: 5 (Herbicidal ratio of 90% or more (almost completely withered))
- effect on crop b (directly sowed rice plant), grade 0-5 [2]: 5 (Herbicidal ratio of 90% or more (almost completely withered))
- L: Apera spica-venti, herbicidal effect grade (Apera spica-venti): 5 (Herbicidal ratio of 90% or more (almost completely withered))
- Q: Galium spurium, herbicidal effect grade (Galium spurium): 0 (Herbicidal ratio of 5% or lower (almost no effect))
- f: beet, effect on crop grade (beet [3]): 1 (Herbicidal ratio of 5% or higher and lower than 20%)
- F: Digitaria ciliaris, herbicidal effect grade (Digitaria ciliaris [4]): 5 (Herbicidal ratio of 90% or more (almost completely withered))
- herbicidal effect on E, grade 0-5 (Cyperus difformis): 5 (Herbicidal ratio of 90% or more (almost completely withered))
- F (Digitaria ciliaris) herbicidal effect grade (Digitaria ciliaris [5]): 5 (Herbicidal ratio of 90% or more (almost completely withered))
- Herbicidal effect grade, A: Echinochloa oryzacola Vasing. [6]: 5 (Herbicidal ratio of 90% or more (almost completely withered))
- M (Abutilon theophrasti) herbicidal effect grade (Abutilon theophrasti): 4 (Herbicidal ratio of 70% or higher and lower than 90%)
- e (wheat) effect on crop grade (wheat): 3 (Herbicidal ratio of 40% or higher and lower than 70%)
- K (Lolium multiflorum Lam.) herbicidal effect grade (Lolium multiflorum Lam.): 5 (Herbicidal ratio of 90% or more (almost completely withered))
- f (beet) effect on crop grade (beet [7]): 0 (Herbicidal ratio of 5% or lower (almost no effect))
- b (directly sowed rice plant) effect on crop grade (rice): 5 (Herbicidal ratio of 90% or more (almost completely withered))

From patent publication US11000033B2, “Ketone or oxime compound, and herbicide” (NISSAN CHEMICAL CORPORATION, priority 2014, dated 2021)
